Earlier results on one compound are cited in US20050203062A1, “Use of tagatose in laxatives” (Spherix Incorporated, priority 2002, published 2005).

Series [1] concerns blood glucose.
For series [2], the system named is Type 2 diabetes. The note with it: clinical trials.
For series [3] the following is noted: amounts approaching 30 or 40 grams per day.

As to `O=C(CO)[C@@H](O)[C@@H](O)[C@H](O)CO` [tagatose, D-tagatose], the “rise in blood glucose” value in series [1] (after tagatose itself) was “does not produce a rise in blood glucose”. Besides, the “rise in blood glucose from subsequent intake of glucose-producing foods” value in series [1] (subsequent intake of glucose-producing foods) is “blunts the rise in blood glucose”. Moreover, the “treatment of Type 2 diabetes” value in series [2] is “effective treatment for Type 2 diabetes”. Moreover, the laxation effect result in series [3] is given as “known to have a Taxation effect”.
